From ChEMBL document CHEMBL5465560, “Selectivity Literature for EUbOPEN Chemogenomic Library” (2024)
Each block holds one compound with its values, some of them ahead of it.

How the values were obtained:
[1] = biological target: T1, Ephrin type-A receptor 3 (Homo sapiens) (UniProt P29320); assay: Selectivity interaction (Upstate Kinase Profiler service (Millipore)) EUB0000056c EPHA3; settings: at 1 µM
T1 sequence (whole entry): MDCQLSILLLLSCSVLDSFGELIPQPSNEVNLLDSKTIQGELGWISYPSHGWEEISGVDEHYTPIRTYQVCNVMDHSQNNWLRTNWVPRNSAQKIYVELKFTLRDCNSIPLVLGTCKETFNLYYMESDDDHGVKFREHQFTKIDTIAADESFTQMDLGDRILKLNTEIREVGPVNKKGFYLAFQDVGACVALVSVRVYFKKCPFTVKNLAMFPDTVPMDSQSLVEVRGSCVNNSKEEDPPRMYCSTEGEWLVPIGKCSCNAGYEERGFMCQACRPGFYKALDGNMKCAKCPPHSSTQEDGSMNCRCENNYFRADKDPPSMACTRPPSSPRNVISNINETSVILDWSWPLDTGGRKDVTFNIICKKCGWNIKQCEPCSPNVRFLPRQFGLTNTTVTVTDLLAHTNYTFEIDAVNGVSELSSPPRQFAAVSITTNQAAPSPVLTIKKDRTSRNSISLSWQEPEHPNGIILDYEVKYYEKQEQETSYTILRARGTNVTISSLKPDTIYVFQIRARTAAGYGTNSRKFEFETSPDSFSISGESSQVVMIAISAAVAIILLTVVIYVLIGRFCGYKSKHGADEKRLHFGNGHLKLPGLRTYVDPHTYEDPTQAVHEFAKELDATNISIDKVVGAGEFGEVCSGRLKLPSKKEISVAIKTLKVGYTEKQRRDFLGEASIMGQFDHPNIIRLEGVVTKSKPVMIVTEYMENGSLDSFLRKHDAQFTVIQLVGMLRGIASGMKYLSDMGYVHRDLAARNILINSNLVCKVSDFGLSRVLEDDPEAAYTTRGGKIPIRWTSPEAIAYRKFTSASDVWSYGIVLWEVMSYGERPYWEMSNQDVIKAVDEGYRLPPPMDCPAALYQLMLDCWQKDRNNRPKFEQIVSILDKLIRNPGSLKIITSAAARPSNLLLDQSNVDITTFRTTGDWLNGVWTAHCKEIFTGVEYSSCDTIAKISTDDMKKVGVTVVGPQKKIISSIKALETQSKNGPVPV

[2] = biological target: Microtubule-associated serine/threonine-protein kinase 1 (Homo sapiens) (UniProt Q9Y2H9); assay: Selectivity interaction (ActivX KiNativ screen (kinase selectivity in THP-1 cell lysates)) EUB0000639a MAST1; type: subcellular; settings: lysate
Sequence of Microtubule-associated serine/threonine-protein kinase 1 (Homo sapiens) (Q9Y2H9 whole entry, looked up): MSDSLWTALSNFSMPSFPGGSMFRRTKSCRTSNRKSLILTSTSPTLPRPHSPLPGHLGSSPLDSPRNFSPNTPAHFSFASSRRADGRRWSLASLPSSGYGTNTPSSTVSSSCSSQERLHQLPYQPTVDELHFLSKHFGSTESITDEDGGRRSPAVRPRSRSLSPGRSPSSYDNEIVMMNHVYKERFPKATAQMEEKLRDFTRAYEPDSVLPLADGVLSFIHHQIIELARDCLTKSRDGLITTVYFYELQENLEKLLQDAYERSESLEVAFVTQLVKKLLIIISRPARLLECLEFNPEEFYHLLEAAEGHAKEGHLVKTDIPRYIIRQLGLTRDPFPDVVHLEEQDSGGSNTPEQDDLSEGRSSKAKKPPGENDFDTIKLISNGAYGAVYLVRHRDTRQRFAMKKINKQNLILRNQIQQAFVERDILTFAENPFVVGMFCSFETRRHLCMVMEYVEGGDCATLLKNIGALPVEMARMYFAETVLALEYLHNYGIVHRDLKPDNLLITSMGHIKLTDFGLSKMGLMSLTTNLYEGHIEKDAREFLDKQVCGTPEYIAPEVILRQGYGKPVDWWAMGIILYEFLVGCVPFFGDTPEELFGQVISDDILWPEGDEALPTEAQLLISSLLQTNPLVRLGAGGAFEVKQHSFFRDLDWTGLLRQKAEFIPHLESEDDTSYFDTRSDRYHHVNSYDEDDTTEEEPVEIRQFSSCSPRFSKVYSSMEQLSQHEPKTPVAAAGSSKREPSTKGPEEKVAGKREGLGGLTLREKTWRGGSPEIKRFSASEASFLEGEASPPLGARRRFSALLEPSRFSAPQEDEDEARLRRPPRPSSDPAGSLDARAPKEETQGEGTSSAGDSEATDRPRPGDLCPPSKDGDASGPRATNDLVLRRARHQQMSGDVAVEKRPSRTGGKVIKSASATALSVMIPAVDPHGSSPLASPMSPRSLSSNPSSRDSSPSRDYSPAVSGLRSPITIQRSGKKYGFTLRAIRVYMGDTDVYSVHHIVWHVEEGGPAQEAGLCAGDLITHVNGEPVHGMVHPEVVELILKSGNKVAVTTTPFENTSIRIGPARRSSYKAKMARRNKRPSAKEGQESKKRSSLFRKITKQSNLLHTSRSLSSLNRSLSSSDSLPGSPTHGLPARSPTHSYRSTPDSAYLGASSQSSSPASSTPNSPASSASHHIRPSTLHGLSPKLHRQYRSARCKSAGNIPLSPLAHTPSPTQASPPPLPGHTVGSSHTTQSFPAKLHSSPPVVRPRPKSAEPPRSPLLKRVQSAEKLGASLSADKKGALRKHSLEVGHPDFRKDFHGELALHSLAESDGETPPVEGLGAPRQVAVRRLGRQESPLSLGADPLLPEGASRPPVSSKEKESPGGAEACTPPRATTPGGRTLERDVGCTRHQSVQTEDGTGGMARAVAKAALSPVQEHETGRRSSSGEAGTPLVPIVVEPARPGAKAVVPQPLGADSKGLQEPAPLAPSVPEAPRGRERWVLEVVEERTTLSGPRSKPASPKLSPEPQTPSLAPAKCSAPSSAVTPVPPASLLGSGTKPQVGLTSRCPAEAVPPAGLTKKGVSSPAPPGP

[3] = biological target: Receptor-interacting serine/threonine-protein kinase 2 (Homo sapiens, UniProt O43353); assay: Selectivity interaction (Kinase panel (Invitrogen)) EUB0000639a RIPK2; settings: at 200 nM
Sequence of Receptor-interacting serine/threonine-protein kinase 2 (O43353 whole entry): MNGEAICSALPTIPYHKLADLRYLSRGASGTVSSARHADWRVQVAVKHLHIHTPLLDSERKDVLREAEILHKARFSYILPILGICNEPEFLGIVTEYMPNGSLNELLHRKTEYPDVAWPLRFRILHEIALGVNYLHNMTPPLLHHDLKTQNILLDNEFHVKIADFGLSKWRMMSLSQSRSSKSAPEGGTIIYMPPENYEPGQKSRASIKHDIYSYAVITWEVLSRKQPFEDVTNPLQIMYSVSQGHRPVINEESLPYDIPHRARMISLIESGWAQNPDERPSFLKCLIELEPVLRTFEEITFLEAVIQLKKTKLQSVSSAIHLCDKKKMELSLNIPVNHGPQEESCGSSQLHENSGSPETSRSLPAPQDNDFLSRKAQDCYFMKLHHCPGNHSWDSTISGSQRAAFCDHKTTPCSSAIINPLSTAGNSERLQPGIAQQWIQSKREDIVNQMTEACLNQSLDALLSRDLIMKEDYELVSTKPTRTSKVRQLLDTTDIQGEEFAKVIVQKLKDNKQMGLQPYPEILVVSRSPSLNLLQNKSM

[4] = biological target: T2, Calcium/calmodulin-dependent protein kinase type IV (Homo sapiens) (UniProt Q16566); assay: Selectivity interaction (ActivX KiNativ screen (kinase selectivity in THP-1 cell lysates)) EUB0000639a CAMK4; type: subcellular; settings: lysate
T2 sequence (whole entry): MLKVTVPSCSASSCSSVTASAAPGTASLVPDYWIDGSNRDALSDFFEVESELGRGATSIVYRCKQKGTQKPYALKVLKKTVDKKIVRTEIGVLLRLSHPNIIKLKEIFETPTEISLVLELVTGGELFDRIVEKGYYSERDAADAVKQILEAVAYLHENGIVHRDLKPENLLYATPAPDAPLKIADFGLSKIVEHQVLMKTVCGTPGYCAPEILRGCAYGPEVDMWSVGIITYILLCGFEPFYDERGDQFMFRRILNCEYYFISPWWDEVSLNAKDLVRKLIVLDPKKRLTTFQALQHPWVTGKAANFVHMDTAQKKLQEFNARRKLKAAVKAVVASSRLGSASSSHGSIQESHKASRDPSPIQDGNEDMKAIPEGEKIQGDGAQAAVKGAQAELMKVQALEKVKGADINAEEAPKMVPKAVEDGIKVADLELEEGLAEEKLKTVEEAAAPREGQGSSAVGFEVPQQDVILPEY

[5] = biological target: Ribosomal protein S6 kinase alpha-1 (Homo sapiens, UniProt Q15418); assay: Selectivity interaction (ProQinase) EUB0000171b RPS6KA1
Sequence of Ribosomal protein S6 kinase alpha-1 (Q15418 whole entry): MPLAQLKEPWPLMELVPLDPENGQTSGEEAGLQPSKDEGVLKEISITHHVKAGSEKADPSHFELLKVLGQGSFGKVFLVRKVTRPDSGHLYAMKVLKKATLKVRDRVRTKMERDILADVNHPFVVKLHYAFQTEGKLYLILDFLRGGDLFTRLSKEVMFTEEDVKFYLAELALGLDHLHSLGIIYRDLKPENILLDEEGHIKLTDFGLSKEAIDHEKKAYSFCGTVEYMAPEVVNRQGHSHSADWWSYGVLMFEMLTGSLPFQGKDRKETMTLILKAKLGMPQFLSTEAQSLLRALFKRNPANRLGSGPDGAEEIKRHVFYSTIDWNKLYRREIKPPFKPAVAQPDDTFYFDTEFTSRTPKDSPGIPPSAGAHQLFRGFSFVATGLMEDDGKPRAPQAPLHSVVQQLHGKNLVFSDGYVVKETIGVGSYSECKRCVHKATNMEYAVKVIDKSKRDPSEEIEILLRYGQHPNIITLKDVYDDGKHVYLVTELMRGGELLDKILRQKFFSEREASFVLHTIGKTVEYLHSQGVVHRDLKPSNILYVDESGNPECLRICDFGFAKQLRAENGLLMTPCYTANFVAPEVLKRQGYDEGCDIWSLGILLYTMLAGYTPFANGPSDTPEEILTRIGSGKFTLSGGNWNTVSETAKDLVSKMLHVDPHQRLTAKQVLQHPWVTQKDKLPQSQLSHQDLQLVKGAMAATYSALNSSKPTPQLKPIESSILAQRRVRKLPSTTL

[6] = biological target: Activin receptor type-2A (Homo sapiens) (UniProt P27037); assay: Selectivity interaction (KinomeScan (DiscoverX)) EUB0000595a ACVR2A; settings: at 10 µM
Sequence of Activin receptor type-2A (Homo sapiens) (P27037 whole entry): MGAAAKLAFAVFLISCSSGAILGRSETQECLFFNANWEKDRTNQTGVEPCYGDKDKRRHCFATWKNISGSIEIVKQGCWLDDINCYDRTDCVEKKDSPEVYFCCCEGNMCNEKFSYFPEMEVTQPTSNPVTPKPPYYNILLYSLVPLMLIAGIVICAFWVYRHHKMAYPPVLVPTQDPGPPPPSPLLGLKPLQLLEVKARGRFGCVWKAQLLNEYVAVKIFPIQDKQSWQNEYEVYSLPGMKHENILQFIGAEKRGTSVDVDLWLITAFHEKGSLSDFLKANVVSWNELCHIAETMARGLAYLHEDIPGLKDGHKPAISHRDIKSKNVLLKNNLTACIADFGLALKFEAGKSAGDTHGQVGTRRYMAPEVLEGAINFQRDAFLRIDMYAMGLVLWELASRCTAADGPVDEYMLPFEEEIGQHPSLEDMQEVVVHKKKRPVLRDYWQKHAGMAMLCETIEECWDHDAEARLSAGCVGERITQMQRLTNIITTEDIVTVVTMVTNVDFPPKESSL

[7] = biological target: Dual specificity tyrosine-phosphorylation-regulated kinase 1B (Homo sapiens, UniProt Q9Y463); assay: Selectivity interaction (KinomeScan (DiscoverX)) EUB0001079a DYRK1B; settings: at 1 µM
Sequence of Dual specificity tyrosine-phosphorylation-regulated kinase 1B (Q9Y463 whole entry, looked up): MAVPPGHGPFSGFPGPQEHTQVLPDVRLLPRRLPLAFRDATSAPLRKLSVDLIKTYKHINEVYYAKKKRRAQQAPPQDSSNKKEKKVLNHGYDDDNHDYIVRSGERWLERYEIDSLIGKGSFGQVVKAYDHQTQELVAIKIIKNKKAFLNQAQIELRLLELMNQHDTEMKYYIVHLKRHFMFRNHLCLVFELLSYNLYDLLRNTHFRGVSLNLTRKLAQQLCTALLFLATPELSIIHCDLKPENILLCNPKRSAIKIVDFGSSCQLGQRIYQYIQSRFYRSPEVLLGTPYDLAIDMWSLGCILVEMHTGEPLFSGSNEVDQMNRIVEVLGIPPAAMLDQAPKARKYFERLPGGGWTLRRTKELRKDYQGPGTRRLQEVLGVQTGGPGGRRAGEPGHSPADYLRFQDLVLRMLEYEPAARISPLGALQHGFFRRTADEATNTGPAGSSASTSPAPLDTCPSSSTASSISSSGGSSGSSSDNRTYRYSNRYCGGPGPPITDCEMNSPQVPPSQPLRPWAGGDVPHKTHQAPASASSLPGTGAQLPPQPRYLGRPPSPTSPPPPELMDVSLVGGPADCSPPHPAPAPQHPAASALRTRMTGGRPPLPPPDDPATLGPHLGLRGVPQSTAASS

[8] = biological target: 5'-AMP-activated protein kinase catalytic subunit alpha-2 (Homo sapiens) (UniProt P54646); assay: Selectivity interaction (KinomeScan (DiscoverX)) EUB0001079a PRKAA2; settings: at 1 µM
Sequence of 5'-AMP-activated protein kinase catalytic subunit alpha-2 (Homo sapiens) (P54646 whole entry, looked up): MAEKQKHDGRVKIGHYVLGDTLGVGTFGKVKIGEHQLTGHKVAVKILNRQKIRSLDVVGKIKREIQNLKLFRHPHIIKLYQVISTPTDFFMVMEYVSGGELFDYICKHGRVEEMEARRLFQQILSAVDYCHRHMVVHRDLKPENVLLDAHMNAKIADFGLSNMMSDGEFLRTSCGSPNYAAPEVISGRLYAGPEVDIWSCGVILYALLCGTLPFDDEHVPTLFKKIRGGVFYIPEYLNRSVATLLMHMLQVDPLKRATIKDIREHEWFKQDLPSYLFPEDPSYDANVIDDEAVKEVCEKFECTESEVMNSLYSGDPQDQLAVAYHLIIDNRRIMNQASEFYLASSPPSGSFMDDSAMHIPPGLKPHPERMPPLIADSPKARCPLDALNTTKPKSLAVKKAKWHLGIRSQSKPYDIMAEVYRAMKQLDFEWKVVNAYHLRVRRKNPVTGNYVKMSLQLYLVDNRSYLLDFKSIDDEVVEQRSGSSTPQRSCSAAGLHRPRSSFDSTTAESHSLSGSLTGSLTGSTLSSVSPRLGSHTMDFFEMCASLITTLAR

[9] = biological target: T2, Calcium/calmodulin-dependent protein kinase type IV (Homo sapiens); assay: Selectivity interaction (KinomeScan (DiscoverX)) EUB0000092b CAMK4; settings: at 10 µM
[10] = biological target: Serine/threonine-protein kinase Chk2 (Homo sapiens) (UniProt O96017); assay: Selectivity interaction (KinomeScan (DiscoverX)) EUB0000618a CHEK2; settings: at 10 µM

% of inhibition [1]: -1%
SMILES: Cc1ccc(-c2ccc3c(ccc4sc5c(c43)NC[C@@H](C)NC5=O)n2)cn1

% of inhibition ([2]; at 0.01 µM): -0.4%
% of inhibition ([2]; at 0.04 µM): -2.4%
% of inhibition ([2]; at 0.2 µM): -2.5%
% of inhibition ([2]; at 1 µM): -1.4%
% of inhibition ([2]; at 5 µM): -30.3%
% of inhibition [3]: 16.8%
% of inhibition ([4]; at 0.01 µM): 25.8%
% of inhibition ([4]; at 0.04 µM): 19.1%
% of inhibition ([4]; at 0.2 µM): -4.7%
% of inhibition ([4]; at 1 µM): 11.2%
% of inhibition ([4]; at 5 µM): 18.6%
SMILES: CC[C@@H]1[C@H](F)C(=O)N[C@@H]1COc1nccc2cc(C(N)=O)c(OC)cc12 [ZIMLOVISERTIB]

% of control ([5]; at 1 µM): 82%
% of control ([5]; at 5 µM): 64%
SMILES: C=CC(=O)Nc1cccc(C(=O)Nc2ccc(Nc3cc(-c4[nH]c(SC)nc4C)ccn3)cc2)c1

SMILES: COCC(=O)NC/C=C/c1ccc2ncnc(Nc3ccc(Oc4ccc(C)nc4)c(C)c3)c2c1 [CP-724714]
% of control [6]: 100%

SMILES: Nc1cnc(N2CCc3cc(S(=O)(=O)Nc4c(F)cc(Cl)cc4F)cc(N4CCCC4=O)c32)nc1 [TP-020n]
% of control [7]: 100%
% of control [8]: 100%

SMILES: CCC(=O)N1CCN(c2ccc(-n3c(=O)ccc4cnc5ccc(-c6cnc7ccccc7c6)cc5c43)cc2C(F)(F)F)CC1
% of control [9]: 90%

SMILES: O[C@H]1CC[C@H](Nc2ncc3nc(Nc4c(F)cc(F)cc4F)n([C@H]4CCOC4)c3n2)CC1
% of control [10]: 100%
